Experimental data reported in patent US11179445B2, “Pharmaceutical composition and biomaterial comprising fusion peptide in which bone tissue-selective peptide bound to parathyroid hormone (PTH) or fragment thereof” (Nano Intelligent Biomedical Engineering Corporation Co. Ltd., priority 2017, dated 2021).

How the values were obtained:
[1] = cited from earlier work
[2] = Concentration of calcium in blood of osteoporosis-induced mice (QuantiChrom calcium assay kit); assay type: in vivo; conditions: ovariectomized ICR mice; PTH 20 μg/kg daily for 3 months, fusion peptide 80 pg/kg weekly for 6 months
Protocol: Six week-old ICR mice were anesthetized by intramuscular injection using a mixture of 10 mg/kg of xylazine (Rompun®, Bayer, Korea) and 100 mg/kg of ketamine (Ketalar®, Yuhan Co., Ltd., Korea) and then the ovaries present below the bilateral kidneys were entirely removed carefully. Suturing was performed by an ordinary method and 3 mg/kg of gentamicin (Gentamycin®, JW Pharmaceutical Corporation, Korea) was intramuscularly injected.
Three months after the ovariectomy, whether or not bone loss occurred was checked. […] The change in bone density was evaluated, as compared with a group not treated with osteoporosis.
The concentration of calcium in blood was determined using a QuantiChrom™ calcium assay kit (Bioassay Systems, Hayward, Calif.). […] One of the effects of PTH on the human body is to increase the concentration of calcium in blood by affecting bones and kidneys. Therefore, long-term administration of PTH causes side effects that induce hypercalcemia.

Row | SMILES | half-life ([1]; subcutaneous injection once a day) | side effects ([1]; upon use for a long time of 2 years or longer) | concentration of calcium in blood [2]
1 | CC[C@H](C)[C@H](NC(=O)[C@H](CCC(=O)O)NC(=O)[C@H](CO)NC(=O)[C@@H](NC(=O)[C@@H](N)CO)C(C)C)C(=O)N[C@@H](CCC(N)=O)C(=O)N[C@@H](CC(C)C)C(=O)N[C@@H](CCSC)C(=O)N[C@@H](Cc1cnc[nH]1)C(=O)N[C@@H](CC(N)=O)C(=O)N[C@@H](CC(C)C)C(=O)NCC(=O)N[C@@H](CCCCN)C(=O)N[C@@H](Cc1cnc[nH]1)C(=O)N[C@@H](CC(C)C)C(=O)N[C@@H](CC(N)=O)C(=O)N[C@@H](CO)C(=O)N[C@@H](CCSC)C(=O)N[C@@H](CCC(=O)O)C(=O)N[C@@H](CCCN=C(N)N)C(=O)N[C@H](C(=O)N[C@@H](CCC(=O)O)C(=O)N[C@@H](Cc1c[nH]c2ccccc12)C(=O)N[C@@H](CC(C)C)C(=O)N[C@@H](CCCN=C(N)N)C(=O)N[C@@H](CCCCN)C(=O)N[C@@H](CCCCN)C(=O)N[C@@H](CC(C)C)C(=O)N[C@@H](CCC(N)=O)C(=O)N[C@@H](CC(=O)O)C(=O)N[C@H](C(=O)N[C@@H](Cc1cnc[nH]1)C(=O)N[C@@H](CC(N)=O)C(=O)N[C@@H](Cc1ccccc1)C(=O)O)C(C)C)C(C)C [Forteo] | ≤ 1 h | hypercalcemia and even a high incidence of osteosarcoma | –
2 | CC[C@H](C)[C@H](NC(=O)[C@H](CCC(=O)O)NC(=O)[C@H](CO)NC(=O)[C@@H](NC(=O)[C@@H](N)CO)C(C)C)C(=O)N[C@@H](CCC(N)=O)C(=O)N[C@@H](CC(C)C)C(=O)N[C@@H](CCSC)C(=O)N[C@@H](Cc1cnc[nH]1)C(=O)N[C@@H](CC(N)=O)C(=O)N[C@@H](CC(C)C)C(=O)NCC(=O)N[C@@H](CCCCN)C(=O)N[C@@H](Cc1cnc[nH]1)C(=O)N[C@@H](CC(C)C)C(=O)N[C@@H](CC(N)=O)C(=O)N[C@@H](CO)C(=O)N[C@@H](CCSC)C(=O)N[C@@H](CCC(=O)O)C(=O)N[C@@H](CCCN=C(N)N)C(=O)N[C@H](C(=O)N[C@@H](CCC(=O)O)C(=O)N[C@@H](Cc1c[nH]c2ccccc12)C(=O)N[C@@H](CC(C)C)C(=O)N[C@@H](CCCN=C(N)N)C(=O)N[C@@H](CCCCN)C(=O)N[C@@H](CCCCN)C(=O)N[C@@H](CC(C)C)C(=O)N[C@@H](CCC(N)=O)C(=O)N[C@@H](CC(=O)O)C(=O)N[C@H](C(=O)N[C@@H](Cc1cnc[nH]1)C(=O)N[C@@H](CC(N)=O)C(=O)N[C@@H](Cc1ccccc1)C(=O)O)C(C)C)C(C)C [PTH, reference compound] | – | – | increased the concentration of calcium at one month
